Assay results: ChEMBL document CHEMBL4346726 (Bioorg Med Chem Lett, 2019)

Key:
[1] = Volume of distribution at steady state in rat; assay type: ADME; details: in vivo, read-out: Vdss
[2] = Half life in rat; assay type: ADME; details: in vivo
[3] = Clearance in rat; assay type: ADME; details: in vivo
[4] = Inhibition of HCV genotype 3a NS3/4a protease by enzymatic assay; parameters: species or system Hepatitis C virus subtype 3a
Hepatitis C virus [5] = test: Antiviral activity against HCV genotype 3a in RLuc cells assessed as reduction in viral replication by luciferase reporter gene assay; assay type: functional, organism-based, Hepacivirus hominis, subtype 3a; details: Hepatitis C virus, subtype 3a
Hepacivirus hominis = test: Binding affinity to HCV NS3/4a protease assessed as compound-protein adduct formation per mg protein using radiolabelled compound
[6] = Lipophilicity, log D of compound; assay type: physicochemical; details: octanol/water
[7] = Oral bioavailability in rat; assay type: ADME, organism-based; details: in vivo
[8] = Drug concentration in rat liver after 6 hrs; assay type: ADME, tissue-based; details: read-out: Drug uptake
[9] = MRT in rat; assay type: ADME; details: in vivo
[10] = Drug metabolism in human liver microsomes assessed as hydroxylated metabolite formation; assay type: ADME, Microsome
Hepatitis C virus [11] = test: Antiviral activity against HCV genotype 1a harboring Q80K mutant in RLuc cells assessed as reduction in viral replication by luciferase reporter gene assay; assay type: functional, organism-based, Hepacivirus hominis; details: subtype 1a
[12] = Half life in rat at 1 mg/kg, iv or 3 mg/kg, po; assay type: ADME, organism-based; details: in vivo
[13] = Half life in dog at 0.5 mg/kg, iv or 1 mg/kg, po; assay type: ADME, […], Canis lupus familiaris; details: in vivo
[14] = Volume of distribution at steady state in cynomolgus monkey at 0.5 mg/kg, iv or 1 mg/kg, po; assay type: ADME, organism-based, Macaca fascicularis; details: in vivo, read-out: Vdss
Hepatitis C virus [15] = test: Antiviral activity against HCV genotype 1a in RLuc cells assessed as reduction in viral replication by luciferase reporter gene assay; assay type: functional, organism-based, Hepacivirus hominis; details: subtype 1a
Hepatitis C virus [16] = test: Antiviral activity against HCV genotype 1b in RLuc cells assessed as reduction in viral replication by luciferase reporter gene assay; assay type: functional, organism-based, Hepacivirus hominis; details: subtype 1b
Hepatitis C virus [17] = test: Antiviral activity against HCV genotype 2a in RLuc cells assessed as reduction in viral replication by luciferase reporter gene assay; assay type: functional, organism-based, Hepacivirus hominis; details: subtype 2a
Hepatitis C virus [18] = test: Antiviral activity against HCV genotype 2b in RLuc cells assessed as reduction in viral replication by luciferase reporter gene assay; assay type: functional, organism-based, Hepacivirus hominis; details: subtype 2b
Hepatitis C virus [19] = test: Antiviral activity against HCV genotype 4a in RLuc cells assessed as reduction in viral replication by luciferase reporter gene assay; assay type: functional, organism-based, Hepacivirus hominis; details: subtype 4a
Hepatitis C virus [20] = test: Antiviral activity against HCV genotype 5a in RLuc cells assessed as reduction in viral replication by luciferase reporter gene assay; assay type: functional, organism-based, Hepacivirus hominis; details: subtype 5a
Hepatitis C virus [21] = test: Antiviral activity against HCV genotype 6a in RLuc cells assessed as reduction in viral replication by luciferase reporter gene assay; assay type: functional, organism-based, Hepacivirus hominis; details: subtype 6a
Hepatitis C virus [22] = test: Antiviral activity against HCV genotype 1a harboring R155K mutant in RLuc cells assessed as reduction in viral replication by luciferase reporter gene assay; assay type: functional, organism-based, Hepacivirus hominis; details: subtype 1a
Hepatitis C virus [23] = test: Antiviral activity against HCV genotype 1b harboring D168E mutant in RLuc cells assessed as reduction in viral replication by luciferase reporter gene assay; assay type: functional, organism-based, Hepacivirus hominis; details: subtype 1b
Hepatitis C virus [24] = test: Antiviral activity against HCV genotype 1a harboring A156T mutant in RLuc cells assessed as reduction in viral replication by luciferase reporter gene assay; assay type: functional, organism-based, Hepacivirus hominis; details: subtype 1a
Hepatitis C virus [25] = test: Antiviral activity against HCV genotype 1b harboring A156T mutant in RLuc cells assessed as reduction in viral replication by luciferase reporter gene assay; assay type: functional, organism-based, Hepacivirus hominis; details: subtype 1b
[26] = Fraction unbound in rat plasma; assay type: ADME, cell-free
[27] = Fraction unbound in dog plasma; assay type: ADME, cell-free, Canis lupus familiaris
[28] = Fraction unbound in cynomolgus monkey plasma; assay type: ADME, cell-free, Macaca fascicularis
[29] = Fraction unbound in human plasma; assay type: ADME, cell-free
[30] = Clearance in rat at 1 mg/kg, iv or 3 mg/kg, po; assay type: ADME, organism-based; details: in vivo
[31] = Clearance in dog at 0.5 mg/kg, iv or 1 mg/kg, po; assay type: ADME, […], Canis lupus familiaris; details: in vivo
[32] = Clearance in cynomolgus monkey at 0.5 mg/kg, iv or 1 mg/kg, po; assay type: ADME, organism-based, Macaca fascicularis; details: in vivo
[33] = Volume of distribution at steady state in rat at 1 mg/kg, iv or 3 mg/kg, po; assay type: ADME, organism-based; details: in vivo, read-out: Vdss
[34] = Volume of distribution at steady state in dog at 0.5 mg/kg, iv or 1 mg/kg, po; assay type: ADME, […], Canis lupus familiaris; details: in vivo, read-out: Vdss
[35] = Half life in cynomolgus monkey at 0.5 mg/kg, iv or 1 mg/kg, po; assay type: ADME, organism-based, Macaca fascicularis; details: in vivo
[36] = Oral bioavailability in rat at 3 mg/kg; assay type: ADME, organism-based; details: in vivo
[37] = Oral bioavailability in dog at 1 mg/kg; assay type: ADME, […], Canis lupus familiaris; details: in vivo
[38] = Oral bioavailability in cynomolgus monkey at 1 mg/kg; assay type: ADME, organism-based, Macaca fascicularis; details: in vivo
[39] = Fraction absorbed in rat at 3 mg/kg, po; assay type: ADME, organism-based; details: in vivo, read-out: Fabs
[40] = Fraction absorbed in dog at 1 mg/kg, po; assay type: ADME, […], Canis lupus familiaris; details: in vivo, read-out: Fabs
[41] = Fraction absorbed in cynomolgus monkey at 1 mg/kg, po; assay type: ADME, organism-based, Macaca fascicularis; details: in vivo, read-out: Fabs
[42] = Ratio of drug level in rat liver to plasma at 1 mg/kg, iv or 3 mg/kg, po measured at 2 hr; assay type: ADME, organism-based
[43] = Ratio of drug level in dog liver to plasma at 0.5 mg/kg, iv or 1 mg/kg, po measured at 2 hr; assay type: ADME, […], Canis lupus familiaris
[44] = Ratio of drug level in cynomolgus monkey liver to plasma at 0.5 mg/kg, iv or 1 mg/kg, po measured at 2 hr; assay type: ADME, organism-based, Macaca fascicularis
[45] = Selectivity ratio of EC50 for antiviral activity against HCV genotype 3a to EC50 for antiviral activity against HCV genotype 1a; assay type: functional
[46] = Protein binding in rat plasma; assay type: ADME; details: read-out: PPB
[47] = Protein binding in dog plasma; assay type: ADME, Canis lupus familiaris; details: read-out: PPB
[48] = Protein binding in cynomolgus monkey plasma; assay type: ADME, Macaca fascicularis; details: read-out: PPB
[49] = Protein binding in human plasma; assay type: ADME; details: read-out: PPB
[50] = Drug uptake in human hepatocytes; assay type: ADME, cell-based, Hepatocyte; details: TDE = time-dependent effect
[51] = Drug uptake in organic-anion-transporting polypeptide over expressing CHO cells; assay type: ADME, cell-based, Cricetulus griseus; details: chinese hamster, TDE = time-dependent effect
[52] = Steady state half life in human at 30 to 300 mg administered once daily for 7 days measured under phase 1 clinical trials; assay type: ADME; details: in vivo, read-out: t1/2ss
[53] = Drug metabolism in human liver microsomes assessed as metabolite formation in presence of glutathione; assay type: ADME, Microsome

## CC[C@@H]1[C@@H]2CN(C(=O)[C@H](C(C)(C)C)NC(=O)O[C@@H]3C[C@H]3CCCCCc3nc4ccc(OC)cc4nc3O2)[C@@H]1C(=O)N[C@]1(C(=O)NS(=O)(=O)C2(C)CC2)C[C@H]1C(F)F
[1]
  Vd: 1.7 L/kg
[2]
  half-life: 1.4 h
[3]
  clearance: 21.7 mL/min/kg
[4]
  Ki: 0.067 nM
Hepatitis C virus [5]
  EC50: 23 nM
Hepacivirus hominis
  PB: 10 pmol/mg
[6]
  logD: 3.8
[7]
  bioavailability: 31%
[8]
  concentration at 6 h: 14 µM
[9]
  MRT: 1.4 h
[10]
  Drug metabolism: Metabolite_Detected

## CC[C@@H]1[C@@H]2CN(C(=O)[C@H](C(C)(C)C)NC(=O)O[C@@H]3C[C@H]3CCCCC(F)(F)c3nc4ccc(OC)cc4nc3O2)[C@@H]1C(=O)N[C@]1(C(=O)NS(=O)(=O)C2(C)CC2)C[C@H]1C(F)F
Hepatitis C virus [11]
  EC50: 3.1 nM
[4]
  Ki: 0.063 nM
Hepatitis C virus [5]
  EC50: 6.1 nM
[12]
  half-life: 0.93 h
[13]
  half-life: 4.2 h
[14]
  Vd: 0.8 L/kg
Hepacivirus hominis
  PB: < 1 pmol/mg
Hepatitis C virus [15]
  EC50: 3.9 nM
Hepatitis C virus [16]
  EC50: 3.3 nM
Hepatitis C virus [17]
  EC50: 3.7 nM
Hepatitis C virus [18]
  EC50: 6.6 nM
Hepatitis C virus [19]
  EC50: 4.9 nM
Hepatitis C virus [20]
  EC50: 1.9 nM
Hepatitis C virus [21]
  EC50: 1.5 nM
Hepatitis C virus [22]
  EC50: 2.7 nM
Hepatitis C virus [23]
  EC50: 4 nM
Hepatitis C virus [24]
  EC50: > 500 nM
Hepatitis C virus [25]
  EC50: > 500 nM
[26]
  Fu: 0.42%
[27]
  Fu: 0.28%
[28]
  Fu: 0.91%
[29]
  Fu: 0.46%
[30]
  clearance: 13.7 mL/min/kg
[31]
  clearance: 3.17 mL/min/kg
[32]
  clearance: 14.8 mL/min/kg
[33]
  Vd: 0.84 L/kg
[34]
  Vd: 0.94 L/kg
[35]
  half-life: 2.1 h
[36]
  bioavailability: 83%
[37]
  bioavailability: 27%
[38]
  bioavailability: 10%
[39]
  Fa: 100%
[40]
  Fa: 30%
[41]
  Fa: 23%
[42]
  Kp at 2 h: > 500
[43]
  Kp at 2 h: 55
[44]
  Kp at 2 h: 100
[45]
  Ratio EC50: <2
[46]
  fraction unbound: < 0.01
[47]
  fraction unbound: < 0.01
[48]
  fraction unbound: < 0.01
[49]
  fraction unbound: < 0.01
[50]
  Drug uptake: Tde
[51]
  Drug uptake: Tde
[52]
  half-life: 28 to 41 h

## C=C[C@@H]1C[C@]1(NC(=O)[C@@H]1[C@H](C)[C@@H]2CN1C(=O)[C@H](C(C)(C)C)NC(=O)O[C@@H]1C[C@H]1CCCCCc1nc3ccc(OC)cc3nc1O2)C(=O)NS(=O)(=O)C1CC1
[4]
  Ki: 0.094 nM
Hepatitis C virus [5]
  EC50: 41 nM
[53]
  Drug metabolism: Metabolite_Detected
